In ChEMBL document CHEMBL5226289, “Discovery of natural anti-inflammatory alkaloids: Potential leads for the drug discovery for the treatment of inflammation” (Eur J Med Chem, 2021):
Each block holds one molecule with its values, some of them ahead of it.

Columns and labels:
[1] = Inhibition of NO production in LPS-induced mouse N9 cells incubated for 48 hrs by griess reagent based assay; format: functional, cell-based; settings: N9, 48 h
RAW264.7 [2] = assay: Inhibition of NO production in LPS-stimulated mouse RAW264.7 cells preincubated with compound for 4 hrs followed by LPS stimulation and measured after 24 hrs by Griess reagent-based assay; format: functional, cell-based
Mus musculus [3] = assay: Prevention of LPS-induced mortality in C57BL/6 mouse model at 30 mg/kg, ip measured after 5 days relative to control; format: functional; settings: time 5 day
RAW264.7 [4] = assay: Antiinflammatory activity in mouse RAW264.7 cells assessed as inhibition of LPS-stimulated iNOS activity preincubated with compound for 24 hrs followed by LPS stimulation for 2 hrs and measured 2 hrs after NADPH addition by fluorescence based assay; format: functional, cell-based
RAW264.7 [5] = assay: Inhibition of NO production in LPS-stimulated mouse RAW264.7 cells preincubated with compound for 24 hrs followed by LPS stimulation and measured after 2 hrs by Griess reagent-based assay; format: functional, cell-based
[6] = Antiinflammatory activity in rat polymorphonuclear leucocyte cells assessed as inhibition of PAF-induced beta-glucuronidase release at 10 uM preincubated for 20 mins followed by PAF addition relative to control; format: functional
[7] = Inhibition of LPS-induced NO production in mouse BV-2 cells […]; format: functional, cell-based
Mus musculus [8] = assay: Antiinflammatory activity in mouse assessed as inhibition of xylene-induced ear edema at 5 mg/kg, IG pre-treated for 30 mins followed by xylene administration and measured after 1 hrs relative to control; format: functional; settings: po, time 1.5 hrs
[9] = molecular target: Prostaglandin G/H synthase 1 (Homo sapiens, UniProt P23219); assay: Inhibition of COX-1 (unknown origin) by colorimetric analysis
Chain of Prostaglandin G/H synthase 1 (P23219 whole entry): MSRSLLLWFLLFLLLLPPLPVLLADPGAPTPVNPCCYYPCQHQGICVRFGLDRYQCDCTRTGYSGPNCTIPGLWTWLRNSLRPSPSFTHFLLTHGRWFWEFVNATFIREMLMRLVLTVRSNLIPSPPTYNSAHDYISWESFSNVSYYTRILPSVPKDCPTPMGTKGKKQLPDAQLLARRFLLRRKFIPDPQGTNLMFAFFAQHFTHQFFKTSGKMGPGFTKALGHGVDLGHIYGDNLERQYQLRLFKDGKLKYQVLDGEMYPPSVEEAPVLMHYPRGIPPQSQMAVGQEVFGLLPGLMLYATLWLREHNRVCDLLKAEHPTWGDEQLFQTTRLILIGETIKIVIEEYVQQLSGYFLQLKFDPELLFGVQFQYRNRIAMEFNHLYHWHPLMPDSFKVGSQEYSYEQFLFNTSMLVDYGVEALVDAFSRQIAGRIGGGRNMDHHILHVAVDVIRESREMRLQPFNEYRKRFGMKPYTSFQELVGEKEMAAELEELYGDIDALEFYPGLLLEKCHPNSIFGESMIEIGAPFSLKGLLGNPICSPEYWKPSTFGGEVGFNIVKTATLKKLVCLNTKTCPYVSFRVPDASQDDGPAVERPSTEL

[10] = molecular target: T1, Prostaglandin G/H synthase 2 (Homo sapiens, UniProt P35354); assay: Inhibition of COX-2 (unknown origin) by colorimetric analysis
T1 sequence (P35354 whole entry): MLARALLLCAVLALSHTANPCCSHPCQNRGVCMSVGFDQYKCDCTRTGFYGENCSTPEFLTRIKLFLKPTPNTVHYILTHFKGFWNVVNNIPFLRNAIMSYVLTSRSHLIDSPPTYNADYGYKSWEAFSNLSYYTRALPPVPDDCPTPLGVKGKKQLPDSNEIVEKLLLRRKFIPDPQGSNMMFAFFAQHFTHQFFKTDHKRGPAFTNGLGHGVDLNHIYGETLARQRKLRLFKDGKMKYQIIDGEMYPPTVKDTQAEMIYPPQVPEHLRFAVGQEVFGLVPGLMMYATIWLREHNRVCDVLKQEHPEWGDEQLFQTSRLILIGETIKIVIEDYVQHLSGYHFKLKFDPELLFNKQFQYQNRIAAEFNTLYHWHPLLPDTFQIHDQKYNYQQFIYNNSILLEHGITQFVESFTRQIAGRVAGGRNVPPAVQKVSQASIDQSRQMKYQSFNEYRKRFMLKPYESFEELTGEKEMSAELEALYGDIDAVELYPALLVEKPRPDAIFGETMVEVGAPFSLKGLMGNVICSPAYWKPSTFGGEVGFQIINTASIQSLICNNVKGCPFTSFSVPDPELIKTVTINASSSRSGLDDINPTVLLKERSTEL

Mus musculus [11] = assay: Antiinflammatory activity in Swiss Webster albino mouse assessed as inhibition of carrageenan-induced paw edema at 75 mg/kg, ip preadministered for 1 hrs followed by carrageenan induction and measured after 3 hrs by plethysmometer relative to control; format: functional; settings: time 4 hrs
Mus musculus [12] = assay: Analgesic activity in Swiss Webster albino mouse assessed as inhibition of acetic acid-induced writhing at 125 mg/kg, po pre-treated for 30 mins followed by acetic acid induction and measured for 15 mins relative to control; format: functional; settings: 0.75 h, time 45 min
HT-1080 [13] = assay: Antiinflammatory activity in human HT-1080 cells assessed as inhibition of TNF-alpha production; format: functional
HT-1080 [14] = assay: Antiinflammatory activity in human HT-1080 cells assessed as inhibition of IL-6 production; format: functional
[15] = molecular target: T2, Polyunsaturated fatty acid 5-lipoxygenase (Homo sapiens) (UniProt P09917); assay: Inhibition of 5-LOX (unknown origin) at 100 uM measured after 5 mins by colorimetric method relative to control
T2 sequence (whole entry): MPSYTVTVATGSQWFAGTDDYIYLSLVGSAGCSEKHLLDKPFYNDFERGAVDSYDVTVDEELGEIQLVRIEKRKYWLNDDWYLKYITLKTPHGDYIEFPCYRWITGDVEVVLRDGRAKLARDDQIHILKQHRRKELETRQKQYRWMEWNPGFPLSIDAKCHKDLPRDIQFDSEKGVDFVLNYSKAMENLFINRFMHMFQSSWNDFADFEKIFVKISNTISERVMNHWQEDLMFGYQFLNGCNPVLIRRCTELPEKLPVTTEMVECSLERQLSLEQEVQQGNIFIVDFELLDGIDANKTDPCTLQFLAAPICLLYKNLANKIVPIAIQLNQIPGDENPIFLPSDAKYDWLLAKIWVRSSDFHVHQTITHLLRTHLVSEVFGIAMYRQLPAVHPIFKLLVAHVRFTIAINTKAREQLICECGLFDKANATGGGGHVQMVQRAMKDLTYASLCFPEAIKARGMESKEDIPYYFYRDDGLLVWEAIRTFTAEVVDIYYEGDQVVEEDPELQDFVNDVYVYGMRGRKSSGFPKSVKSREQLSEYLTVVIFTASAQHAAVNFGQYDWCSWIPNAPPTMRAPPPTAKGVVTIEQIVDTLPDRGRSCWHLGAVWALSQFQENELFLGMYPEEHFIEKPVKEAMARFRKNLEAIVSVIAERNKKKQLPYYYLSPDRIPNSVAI

Mus musculus [16] = assay: Antiinflammatory activity in mouse assessed as inhibition of xylene-induced ear edema at 8 mg/kg, ip pre-treated for 30 mins followed by xylene administration and measured after 1 hrs relative to control; format: functional; settings: time 1.5 hrs
J774.1 = assay: Inhibition of NO production in LPS-stimulated mouse J774.1 cells; format: functional, cell-based
RAW264.7 [17] = assay: Antiinflammatory activity against mouse RAW264.7 cells assessed as inhibition of cell growth; format: functional, cell-based
Mus musculus [18] = assay: Antiinflammatory activity in Swiss mouse assessed as reduction in croton oil-induced ear edema administered via surface of left ear measured after 6 hrs relative to control; format: functional; parameters: scale not given: the % may be the effect or the level left; settings: route au
Mus musculus [19] = assay: Antiinflammatory activity in croton oil-induced Swiss mouse model of ear edema assessed as reduction in MPO activity administered via surface of left ear measured after 6 hrs relative to control; format: functional; parameters: scale not given: the % may be the effect or the level left; settings: route au
RAW264.7 [20] = assay: Inhibition of NO production in LPS-stimulated mouse RAW264.7 cells preincubated with compound for 30 mins followed by LPS stimulation and measured after 24 hrs by Griess reagent-based assay; format: functional, cell-based

SMILES: C=C[C@@H]1[C@@H](O[C@@H]2O[C@H](CO)[C@@H](O)[C@H](O)[C@H]2O)OC=C(C(=O)OC)[C@@H]1C[C@@H]1NCCc2c1[nH]c1ccccc21
IC50 [1]: 8.3 µM

IC50 (RAW264.7 [2]): 18.1 µM
SMILES: COc1cc(/C=C/CO)ccc1O[C@H]1CCCNC1=O

SMILES: COc1ccc2c(c1)[nH]c1c(/C=C/C(=O)O)nccc12
Activity (Mus musculus [3]): 12.5%

IC50 (RAW264.7 [4]): 5.4 µM | IC50 (RAW264.7 [5]): 11.2 µM
SMILES: C=CC(C)(C)c1[nH]c2cc3c(cc2c1/C=C1\NC(=O)[C@@H]2CCCN2C1=O)C=CC(C)(C)O3

SMILES: COC1O[C@H]([C@@H]2c3cc4c(cc3CCN2C)OCO4)c2ccc3c(c21)OCO3 (stereo partly specified)
inhibition at 10 µM [6]: 32.4%

SMILES: CC(C)=CCOc1ccc(CCNC(=O)c2ccccc2)cc1
IC50 [7]: 4.9 µM

SMILES: COC(=O)C1=C2Nc3c(O)cccc3[C@@]23CCN2C[C@@H]([C@H](C)O)[C@@H]1C[C@H]23 [SCHOLARICINE]
inhibition in vivo at 5 mg/kg (Mus musculus [8]): 42%

IC50 [9]: 4.9 µM | IC50 [10]: 1400 nM
SMILES: CC(C)CC(=O)NC[C@H]1CC[C@H](NC(=O)c2nc3ccccc3cc2O)[C@H](O)O1

SMILES: O=C1Oc2c(c3c(O)cc(O)cc3n2-c2ccc(O)cc2)C(=O)Oc2c1c1c(O)cc(O)cc1n2-c1ccc(O)cc1
inhibition in vivo at 75 mg/kg (Mus musculus [11]): 57.1% | inhibition in vivo at 125 mg/kg (Mus musculus [12]): 49.4%

SMILES: Cc1cc(=O)c2c(O)c([C@H]3CCN(C)C[C@H]3O)c(O)cc2o1
inhibition (INH) (HT-1080 [13]): 47% | inhibition (INH) (HT-1080 [14]): 83%

inhibition [15]: 60.8%
SMILES: C/C=C1/CN2CC[C@@H]1[C@@](CO)(C(=O)OC)c1[nH]c3ccccc3c1C2
inhibition in vivo at 8 mg/kg (Mus musculus [16]): 40.3%

SMILES: COC(=O)[C@@]1(O)C2=Nc3c(O)cccc3[C@@]23C[C@H]2C[C@]4(C(C)=O)ON2[C@H]3C[C@H]14
IC50 (J774.1): 49.2 µM | IC50 (RAW264.7 [17]): 39.6 µM

SMILES: CN1C[C@H](O)C[C@H]1C(=O)O
Activity (Mus musculus [18]): 26.8% | Activity (Mus musculus [19]): 59.7%

IC50 (RAW264.7 [20]): 6.8 µM
SMILES: O=C(C1C=CC(c2ccc3c(c2)OCO3)C(/C=C/c2ccc3c(c2)OCO3)C1C(=O)N1CCCCC1)N1CCCCC1 (stereo unspecified)
